Patent publication US4440770A, “Diuretic, hypotensive and antiedemic quinoline oximes” (Mochida Seiyaku Kabushiki Kaisha, priority 1980, dated 1984)

Key:
[1] = system: Carrageenin-Induced Foot Edema; assay: Inhibition for carrageenin-induced foot edema in rats; format: in vivo, Wister strain male rats; conditions: 1 hour before carrageenin, paw volume 3 hours after, probit method; for ED30: Rattus norvegicus, po, read-out: ED30 (dosage for 30% inhibition of edema)
Protocol: 10 Wister strain male rats weighing about 120 g were used in each group. Each compound of this invention was suspended in a 5% aqueous arabic gum solution and administered orally to the animals. One hour after the administration, 0.1 ml of a 1% solution of carrageenin in physiological saline as a phlogistic agent was subcutaneously injected into the right hind paw of the rats which had been shaven previously. The volume of the right hind paw was measured before the administration of the phlogistic agent and 3 hours after the administration. The intensity of edema expressed as percent increase in the foot volume was calculated from the […] (1) and the percent inhibition of edema was calculated from the equation (2). [formula]
The effective dosage of each compound for inhibiting edema was expressed as ED30 (mg/kg) by calculating the dosage for 30% inhibition from the percent inhibition of edema according to the probit method.

[2] = Properties of respective derivatives (solubility); format: physicochemical
rats = assay: Diuretic effect in rats; format: in vivo, Wister strain male rats; conditions: Rattus norvegicus, po, 5 h, urine volume up to 5 hours, % of control; for response vs control in vivo at 20 mg/kg: dosage 20 mg/kg; for response vs control in vivo at 50 mg/kg: dosage 50 mg/kg; for response vs control in vivo at 2.5 mg/kg: dosage 2.5 mg/kg; for response vs control in vivo at 5 mg/kg: dosage 5 mg/kg; for response vs control in vivo at 10 mg/kg: dosage 10 mg/kg
Protocol: Wister strain male rats weighing about 200 g were starved overnight and each compound of this invention suspended in 25 ml/kg of physiological saline were administered orally to the 5 animals in each group, and the diuretic effect up to 5 hours after the administration was measured. The diuretic effect is expressed as the average urine volume (%) of the treated group divided by that of the control group.

[3] = Acute oral toxicity in mice; conditions: mouse, in vivo, mortality 7 days after administration
Protocol: 10 ddY Strain male mice weighing about 20 g were used in each group. Each compound of this invention was suspended in a 5% aqueous gum arabic solution and administered orally. The mortality rate (%) was determined from the number of dead animals 7 days after the administration, and the dosage corresponding to 50% mortality was calculated and expressed as LD50 (mg/kg).

SMILES | ED30 [1] | Solubility in ethanol and dichloromethane [2] | Solubility in water and hexane [2] | response vs control in vivo at 20 mg/kg (rats) | LD50 at 168 h [3] | response vs control in vivo at 50 mg/kg (rats) | response vs control in vivo at 2.5 mg/kg (rats) | response vs control in vivo at 5 mg/kg (rats) | response vs control in vivo at 10 mg/kg (rats) | response vs control in vivo at 0.5 mg/kg (rats; dosage .5 mg/kg (so in the source)) | Solubility in methanol, acetone and chloroform [2] | ED30 (dosage for 30% inhibition of edema) ([1]; oral) | response vs control in vivo at 25 mg/kg (rats; dosage 25 mg/kg)
CC(=O)N1CCC(=NO)c2cc(Br)ccc21 [XIV, 6-Bromo-4-oximino-1-acetyl-1,2,3,4-tetrahydroquinoline] | 182 mg/kg | soluble | Sparingly soluble | 234% | > 5000 mg/kg |  |  |  |  |  |  |  | 
CNC(=O)N1CCC(=NO)c2cc(Cl)ccc21 [XIX, 6-Chloro-4-oximino-1-methylcarbamoyl-1,2,3,4-tetrahydroquinoline] | 62 mg/kg | soluble | Sparingly soluble |  | > 5000 mg/kg | 180% |  |  |  |  |  |  | 
COC(=O)N1CCC(=NO)c2cc(F)ccc21 [IX, 6-Fluoro-4-oximino-1-methoxycarbonyl-1,2,3,4-tetrahydroquinoline] | 22 mg/kg | soluble | Sparingly soluble |  | > 5000 mg/kg |  | 251% | 309% | 408% |  |  |  | 
COC(=O)N1CCC(=NO)c2cc(Cl)ccc21 [Compound X, 6-Chloro-4-oximino-1-methoxycarbonyl-1,2,3,4-tetrahydroquinoline] | 14 mg/kg | soluble | Sparingly soluble |  | 4470 mg/kg |  | 188% | 306% | 371% |  |  |  | 
CN(C)C(=O)N1CCC(=NO)c2cc(F)ccc21 [XXI, 6-Fluoro-4-oximino-1-dimethylcarbamoyl-1,2,3,4-tetrahydroquinoline] | 141 mg/kg | soluble | Sparingly soluble | 209% | > 5000 mg/kg |  |  |  | 128% |  |  |  | 
COC(=O)N1CCC(=NO)c2cc(Br)ccc21 [Compound XI, 6-Bromo-4-oximino-1-methoxycarbonyl-1,2,3,4-tetrahydroquinoline] | 83 mg/kg | soluble | Sparingly soluble |  | > 5000 mg/kg |  |  |  | 293% | 152% |  |  | 
CCC(=O)N1CCC(=NO)c2cc(Br)ccc21 [XVI, 6-Bromo-4-oximino-1-propionyl-1,2,3,4-tetrahydroquinoline] | 16 mg/kg | soluble | Sparingly soluble |  | 4710 mg/kg |  |  | 243% | 380% |  |  |  | 
CCCCC(=O)N1CCC(=NO)c2cc(Cl)ccc21 [Compound V, 6-Chloro-4-oximino-1-valeryl-1,2,3,4-tetrahydroquinoline] | 140 mg/kg |  | Sparingly soluble |  | > 5000 mg/kg | 209% |  |  |  |  | easily soluble |  | 
CCCCC1C(=O)N(c2ccccc2)N(c2ccccc2)C1=O [Phenylbutazone, reference compound] | 65 mg/kg |  |  |  |  |  |  |  |  |  |  | 63 mg/kg | 
CC(C)C(=O)N1CCC(=NO)c2cc(Br)ccc21 [XVII, 6-Bromo-4-oximino-1-isobutyryl-1,2,3,4-tetrahydroquinoline] | 102 mg/kg | soluble | Sparingly soluble |  | > 5000 mg/kg | 173% |  |  |  |  |  |  | 
CCOC(=O)N1CCC(=NO)c2cc(Cl)ccc21 [Compound XIII, 6-Chloro-4-oximino-1-ethoxycarbonyl-1,2,3,4-tetrahydroquinoline] | 49 mg/kg | soluble | Sparingly soluble | 310% | > 5000 mg/kg |  |  |  | 204% |  |  |  | 
CNC(=O)N1CCC(=NO)c2cc(Br)ccc21 [XX, 6-Bromo-4-oximino-1-methylcarbamoyl-1,2,3,4-tetrahydroquinoline] | 95 mg/kg | soluble | Sparingly soluble |  | > 5000 mg/kg | 197% |  |  |  |  |  |  | 
O=C(C=Cc1ccccc1)N1CCC(=NO)c2cc(Br)ccc21 [XVIII, 6-Bromo-4-oximino-1-cinnamoyl-1,2,3,4-tetrahydroquinoline] | 133 mg/kg | soluble | Sparingly soluble |  | > 5000 mg/kg | 203% |  |  |  |  |  |  | 
CCOC(=O)N1CCC(=NO)c2cc(F)ccc21 [Compound XII, 6-Fluoro-4-oximino-1-ethoxycarbonyl-1,2,3,4-tetrahydroquinoline] | 86 mg/kg | soluble | Sparingly soluble | 285% | > 5000 mg/kg |  |  |  | 180% |  |  |  | 
CN(C)C(=O)N1CCC(=NO)c2cc(Br)ccc21 [XXIII, 6-Bromo-4-oximino-1-dimethylcarbamoyl-1,2,3,4-tetrahydroquinoline] | 51 mg/kg | soluble | Sparingly soluble |  | > 5000 mg/kg | 200% |  |  |  |  |  |  | 
O=C(C=Cc1ccccc1)N1CCC(=NO)c2cc(Cl)ccc21 [Compound VIII, 6-Chloro-4-oximino-1-cinnamoyl-1,2,3,4-tetrahydroquinoline] | 44 mg/kg |  | Sparingly soluble |  | > 5000 mg/kg | 228% |  |  |  |  | easily soluble |  | 
CC(C)CC(=O)N1CCC(=NO)c2cc(Cl)ccc21 [Compound VI, 6-Chloro-4-oximino-1-isovaleryl-1,2,3,4-tetrahydroquinoline] | 105 mg/kg |  | Sparingly soluble |  | > 5000 mg/kg | 196% |  |  |  |  | easily soluble |  | 
CCCC(=O)N1CCC(=NO)c2cc(Cl)ccc21 [Compound III, 6-Chloro-4-oximino-1-butyryl-1,2,3,4-tetrahydroquinoline] | 33 mg/kg |  | Sparingly soluble | 240% | > 5000 mg/kg |  |  | 122% | 172% |  | easily soluble |  | 
CC(=O)N1CCC(=NO)c2cc(Cl)ccc21 [Compound I, 6-Chloro-4-oximino-1-acetyl-1,2,3,4-tetrahydroquinoline] | 39 mg/kg |  | Sparingly soluble | 260% | > 5000 mg/kg |  |  | 131% | 186% |  | easily soluble |  | 
CC(C)C(=O)N1CCC(=NO)c2cc(Cl)ccc21 [Compound IV, 6-Chloro-4-oximino-1-isobutyryl-1,2,3,4-tetrahydroquinoline] | 87 mg/kg |  | Sparingly soluble |  | > 5000 mg/kg | 211% |  |  |  |  | easily soluble |  | 119%
CN(C)C(=O)N1CCC(=NO)c2cc(Cl)ccc21 [XXII, 6-Chloro-4-oximino-1-dimethylcarbamoyl-1,2,3,4-tetrahydroquinoline] | 34 mg/kg | soluble | Sparingly soluble | 263% | > 5000 mg/kg |  |  |  | 198% |  |  |  | 
NS(=O)(=O)c1cc(C(=O)O)c(NCc2ccco2)cc1Cl [Furosemide, reference compound] |  |  |  |  |  |  |  | 133% |  |  |  |  | 
CCC(=O)N1CCC(=NO)c2cc(Cl)ccc21 [Compound II, 6-Chloro-4-oximino-1-propionyl-1,2,3,4-tetrahydroquinoline] | 8.8 mg/kg |  | Sparingly soluble |  | 3490 mg/kg |  | 253% | 304% | 410% |  | easily soluble |  | 
